Data reported in patent publication US10988523B2, “Modified lipidated Relaxin B chain peptides and their therapeutic use” (Sanofi, priority 2018, dated 2021).
*1 amine or outer side, *2 acyl side, *3 side chain or, on linkers, in order; H or OH if unused. Where a SMILES comes first, the peptide text is derived from it. Side-chain parts run from the residue outwards. [ ]: non-standard residue; d: D form. The star is where a group is joined. X4 = CCCCCCCCCCCCCCCC(=O)N[C@@H](CCC(=O)N[C@@H](CCC(=O)NCCCC[C@H](NC(=O)CC[C@H](NC(=O)CC[C@H](NC(=O)CCC(=O)NCCCOCCOCCOCCCNC(=O)CCC(=O)NCCCOCCOCCOCCCNC(=O)CCC(=O)NCCCOCCOCCOCCCN*)C(=O)O)C(=O)O)C(N)=O)C(=O)O)C(=O)O; X6 = CCCCCCCCCCCCCCC(=O)N[C@@H](CCC(=O)N[C@@H](CCC(=O)NCCCC[C@H](NC(=O)CC[C@H](NC(=O)CC[C@H](NC(=O)CCC(=O)NCCCOCCOCCOCCCNC(=O)CCC(=O)NCCCOCCOCCOCCCNC(=O)CCC(=O)NCCCOCCOCCOCCCN*)C(=O)O)C(=O)O)C(N)=O)C(=O)O)C(=O)O; X3 = CCCCCCCCCCCCCCCC(=O)N[C@@H](CCC(=O)N[C@@H](CCC(=O)N[C@@H](CCC(=O)N[C@@H](CCC(=O)NCCCC[C@H](NC(=O)CCC(=O)NCCCOCCOCCOCCCNC(=O)CCC(=O)NCCCOCCOCCOCCCN*)C(N)=O)C(=O)O)C(=O)O)C(=O)O)C(=O)O; X5 = CCCCCCCCCCCCCCCC(=O)N[C@@H](CCC(=O)NCCCC[C@H](NC(=O)CC[C@H](NC(=O)CC[C@H](NC(=O)CC[C@H](NC(=O)CCC(=O)NCCCOCCOCCOCCCNC(=O)CCC(=O)NCCCOCCOCCOCCCN*)C(=O)O)C(=O)O)C(=O)O)C(N)=O)C(=O)O; PEG12 = NCCOCCOCCOCCOCCOCCOCCOCCOCCOCCOCCOCCOCCC(=O)O; γGlu = O=C(O)[C@H](CCC(=O)[*:2])N[*:1]; 1Nal = N[C@@H](Cc1cccc2ccccc12)C(=O)O; Stearoyl = CCCCCCCCCCCCCCCCCC(=O)*; αMeK = C[C@](N)(CCCCN)C(=O)O; Nle = CCCC[C@H](N)C(=O)O; Aib = CC(C)(N)C(=O)O

How the values were obtained:
RXFP1 = molecular target: T1, RXFP1 (Homo sapiens, UniProt Q9HBX9); experiment: OVCAR5 cAMP assay (HTRF), RXFP1 agonist activity; format: cell-based; conditions: for EC50: OVCAR5 cells, cAMP HTRF, read-out: EC50 (nM), OVCAR 5 cells (cAMP); for Emax: OVCAR-5, maximal cAMP relative to H2-relaxin maximum (100%), read-out: EMax, OVCAR 5 cells (cAMP)
T1 construct: OVCAR5 cells expressing endogenous RXFP1; endogenous in cells; host or cells: OVCAR5 cells
T1 sequence (Q9HBX9 1-757): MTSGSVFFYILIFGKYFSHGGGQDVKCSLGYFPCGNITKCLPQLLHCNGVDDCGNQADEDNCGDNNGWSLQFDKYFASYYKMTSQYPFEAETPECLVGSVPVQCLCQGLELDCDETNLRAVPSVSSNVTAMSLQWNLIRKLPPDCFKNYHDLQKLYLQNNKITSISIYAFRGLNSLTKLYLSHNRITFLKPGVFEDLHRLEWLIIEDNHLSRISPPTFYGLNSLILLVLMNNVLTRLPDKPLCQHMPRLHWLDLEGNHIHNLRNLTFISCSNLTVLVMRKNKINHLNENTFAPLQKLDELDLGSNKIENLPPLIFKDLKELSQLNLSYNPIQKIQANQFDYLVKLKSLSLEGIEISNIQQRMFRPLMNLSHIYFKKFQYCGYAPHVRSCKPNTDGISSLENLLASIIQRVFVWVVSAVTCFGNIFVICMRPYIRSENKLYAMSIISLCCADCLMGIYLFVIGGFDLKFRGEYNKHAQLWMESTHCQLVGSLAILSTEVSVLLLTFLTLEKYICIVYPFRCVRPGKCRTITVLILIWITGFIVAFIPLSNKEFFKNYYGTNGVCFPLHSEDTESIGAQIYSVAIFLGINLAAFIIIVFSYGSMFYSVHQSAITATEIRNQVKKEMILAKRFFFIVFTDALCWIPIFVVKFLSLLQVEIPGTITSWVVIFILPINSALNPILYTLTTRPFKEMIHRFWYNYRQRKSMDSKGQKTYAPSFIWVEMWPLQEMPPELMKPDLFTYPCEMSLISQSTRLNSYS
Procedure, shortened: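 OVCAR5 cells (endogenous RXFP1) pretreated 40 min at 37° C with 1 mM IBMX, then exposed to peptides in serum-free medium for 30 min at 37° C. Lysate cAMP read by HTRF; EC50 from variable-slope sigmoidal fit; Emax as % of H2-relaxin maximal cAMP in same run.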

[1] = Pharmacokinetic (PK) determination after i.v. or s.c. administration to rats; format: in vivo, Sprague Dawley rats; conditions: Sprague Dawley, Rat PK; for C0 / half-life: iv, 1 mg/kg i.v.; for C0: extrapolated plasma concentration at t=0, read-out: C0; for half-life / Cmax / Tmax / bioavailability: plasma; for half-life: read-out: T½ (converted); for Cmax / Tmax: sc, 3 mg/kg s.c.; for bioavailability: subcutaneous, 3 mg/kg s.c. vs 1 mg/kg i.v., dose-corrected AUC ratio
Procedure, shortened: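 Sprague Dawley rats received peptide in PBS at 1 mg/kg i.v. or 3 mg/kg s.c., dose corrected for salts, solvent and purity. Plasma analysed by LC/MS after protein precipitation; non-compartmental PK, BLQ values set to zero, F% as dose-corrected s.c./i.v. AUC ratio.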

In the case of `CCCCCCCCCCCCCCCC(=O)N[C@@H](CCC(=O)NCCCC[C@H](NC(=O)CC[C@H](NC(=O)CC[C@H](NC(=O)CC[C@H](NC(=O)CCC(=O)NCCCOCCOCCOCCCNC(=O)CCC(=O)NCCCOCCOCCOCCCNC(=O)[C@H](CCCCNC(C)=O)NC(=O)[C@H](C)NC(=O)[C@H](CCCNC(=N)N)NC(=O)[C@](C)(CCCCN)NC(=O)[C@H](CO)NC(=O)[C@H](Cc1ccccc1)NC(=O)[C@@H](NC(=O)[C@H](CO)NC(=O)[C@H](CCCC)NC(=O)CNC(=O)[C@H](CCC(=O)O)NC(=O)C(C)(C)NC(=O)C(C)(C)NC(=O)[C@@H](NC(=O)[C@H](CCCCNC(C)=O)NC(=O)[C@H](C)NC(=O)[C@H](CCCNC(=N)N)NC(=O)[C@@H](NC(=O)[C@H](CCCCN)NC(=O)[C@H](CCC(=O)O)NC(=O)[C@H](CCCNC(=N)N)NC(=O)CNC(=O)[C@H](CCC(=O)O)NC(=O)[C@H](CC(C)C)NC(C)=O)C(C)C)[C@@H](C)CC)[C@@H](C)O)C(=O)O)C(=O)O)C(=O)O)C(N)=O)C(=O)O` [compound 157] (Ac-LEGREKVRAK(Ac)I[Aib][Aib]EG[Nle]STFS[αMeK]RAK(Ac)-X5), the EC50 (RXFP1) was 0.02 nM, the Emax (RXFP1) was 89% and the C0 [1] was 4.35 µM. For the same compound, the half-life [1] was 401 min, the Cmax [1] was 1510 nM and the Tmax [1] was 8 h. The bioavailability [1] was 59%.
`CCCCCCCCCCCCCCCCCC(=O)N[C@@H](CCC(=O)N[C@@H](CCC(=O)N[C@@H](CCC(=O)NCCCC[C@H](NC(=O)CCOCCOCCOCCOCCOCCOCCOCCOCCOCCOCCOCCOCCNC(=O)[C@H](CCCCN)NC(=O)[C@H](CCCNC(=N)N)NC(=O)C(C)(C)NC(=O)[C@H](CO)NC(=O)[C@H](Cc1cccc2ccccc12)NC(=O)[C@@H](NC(=O)[C@H](CO)NC(=O)[C@H](CCCC)NC(=O)CNC(=O)[C@H](CCC(=O)O)NC(=O)C(C)(C)NC(=O)C(C)(C)NC(=O)[C@@H](NC(=O)[C@H](CCCCNC(C)=O)NC(=O)[C@H](C)NC(=O)[C@H](CCCNC(=N)N)NC(=O)[C@@H](NC(=O)[C@H](CCCCN)NC(=O)[C@H](CCC(=O)O)NC(=O)[C@H](CCCNC(=N)N)NC(=O)CNC(=O)[C@H](CCC(=O)O)NC(=O)[C@H](CC(C)C)NC(C)=O)C(C)C)[C@@H](C)CC)[C@@H](C)O)C(N)=O)C(=O)O)C(=O)O)C(=O)O` [compound 45] (Ac-LEGREKVRAK(Ac)I[Aib][Aib]EG[Nle]ST[1Nal]S[Aib]RK[PEG12]K([γGlu-γGlu-γGlu-Stearoyl])-NH2) showed an Emax (RXFP1) of 79%, a C0 [1] of 2.9 µM and a half-life [1] of 173 min. It also gave a Cmax [1] of 2200 nM, a Tmax [1] of 7 h and a bioavailability [1] of 65%.
With `CCCCCCCCCCCCCCC(=O)N[C@@H](CCC(=O)N[C@@H](CCC(=O)NCCCC[C@H](NC(=O)CC[C@H](NC(=O)CC[C@H](NC(=O)CCC(=O)NCCCOCCOCCOCCCNC(=O)CCC(=O)NCCCOCCOCCOCCCNC(=O)CCC(=O)NCCCOCCOCCOCCCNC(=O)[C@H](CCCCNC(C)=O)NC(=O)[C@H](C)NC(=O)[C@H](CCCNC(=N)N)NC(=O)[C@](C)(CCCCN)NC(=O)[C@H](CO)NC(=O)[C@H](Cc1ccccc1)NC(=O)[C@@H](NC(=O)[C@H](CO)NC(=O)[C@H](CCC(N)=O)NC(=O)CNC(=O)[C@H](CCC(=O)O)NC(=O)C(C)(C)NC(=O)C(C)(C)NC(=O)[C@@H](NC(=O)[C@H](CCCCNC(C)=O)NC(=O)[C@H](C)NC(=O)[C@H](CCCNC(=N)N)NC(=O)[C@@H](NC(=O)[C@H](CCCCN)NC(=O)[C@H](CCC(=O)O)NC(=O)[C@H](CCCNC(=N)N)NC(=O)CNC(=O)[C@H](CCC(=O)O)NC(=O)[C@H](CC(C)C)NC(C)=O)C(C)C)[C@@H](C)CC)[C@@H](C)O)C(=O)O)C(=O)O)C(N)=O)C(=O)O)C(=O)O` [compound 184] (Ac-LEGREKVRAK(Ac)I[Aib][Aib]EGQSTFS[αMeK]RAK(Ac)-X6) the Emax (RXFP1) was 100%, the C0 [1] was 4.7 µM and the half-life [1] was 438 min. It also gave a Cmax [1] of 2800 nM, a Tmax [1] of 7 h and a bioavailability [1] of 71%.
Work on `CCCCCCCCCCCCCCCC(=O)N[C@@H](CCC(=O)N[C@@H](CCC(=O)NCCCC[C@H](NC(=O)CC[C@H](NC(=O)CC[C@H](NC(=O)CCC(=O)NCCCOCCOCCOCCCNC(=O)CCC(=O)NCCCOCCOCCOCCCNC(=O)CCC(=O)NCCCOCCOCCOCCCNC(=O)[C@H](CCCCNC(C)=O)NC(=O)[C@H](C)NC(=O)[C@H](CCCNC(=N)N)NC(=O)[C@](C)(CCCCN)NC(=O)[C@H](CO)NC(=O)[C@H](Cc1ccccc1)NC(=O)[C@@H](NC(=O)[C@H](CO)NC(=O)[C@H](CCCC)NC(=O)CNC(=O)[C@H](CCC(=O)O)NC(=O)C(C)(C)NC(=O)C(C)(C)NC(=O)[C@@H](NC(=O)[C@H](CCCCNC(C)=O)NC(=O)[C@H](C)NC(=O)[C@H](CCCNC(=N)N)NC(=O)[C@@H](NC(=O)[C@H](CCCCN)NC(=O)[C@H](CCC(=O)O)NC(=O)[C@H](CCCNC(=N)N)NC(=O)CNC(=O)[C@H](CCC(=O)O)NC(=O)[C@H](CC(C)C)NC(C)=O)C(C)C)[C@@H](C)CC)[C@@H](C)O)C(=O)O)C(=O)O)C(N)=O)C(=O)O)C(=O)O` [compound 169] (Ac-LEGREKVRAK(Ac)I[Aib][Aib]EG[Nle]STFS[αMeK]RAK(Ac)-X4) yielded an EC50 (RXFP1) of 0.01 nM, an Emax (RXFP1) of 89% and a C0 [1] of 3.04 µM. The half-life [1] was 348 min, the Cmax [1] was 1890 nM and the Tmax [1] was 6 h. The bioavailability [1] was 69%.
`CCCCCCCCCCCCCCCC(=O)N[C@@H](CCC(=O)N[C@@H](CCC(=O)N[C@@H](CCC(=O)N[C@@H](CCC(=O)NCCCC[C@H](NC(=O)CCC(=O)NCCCOCCOCCOCCCNC(=O)CCC(=O)NCCCOCCOCCOCCCNC(=O)[C@H](CCCCNC(C)=O)NC(=O)[C@H](C)NC(=O)[C@H](CCCNC(=N)N)NC(=O)[C@](C)(CCCCN)NC(=O)[C@H](CO)NC(=O)[C@H](Cc1ccccc1)NC(=O)[C@@H](NC(=O)[C@H](CO)NC(=O)[C@H](CCCC)NC(=O)CNC(=O)[C@H](CCC(=O)O)NC(=O)C(C)(C)NC(=O)C(C)(C)NC(=O)[C@@H](NC(=O)[C@H](CCCCNC(C)=O)NC(=O)[C@H](C)NC(=O)[C@H](CCCNC(=N)N)NC(=O)[C@@H](NC(=O)[C@H](CCCCN)NC(=O)[C@H](CCC(=O)O)NC(=O)[C@H](CCCNC(=N)N)NC(=O)CNC(=O)[C@H](CCC(=O)O)NC(=O)[C@H](CC(C)C)NC(C)=O)C(C)C)[C@@H](C)CC)[C@@H](C)O)C(N)=O)C(=O)O)C(=O)O)C(=O)O)C(=O)O` [compound 162] (Ac-LEGREKVRAK(Ac)I[Aib][Aib]EG[Nle]STFS[αMeK]RAK(Ac)-X3) showed an EC50 (RXFP1) of 0.12 nM, an Emax (RXFP1) of 91% and a C0 [1] of 3.2 µM. The half-life [1] was 300 min, the Cmax [1] was 2300 nM and the Tmax [1] was 5 h. It also gave a bioavailability [1] of 64%.
